# Measurements: patent US20090076136A1, “THERAPEUTIC AGENT” (priority 2003, published 2009)
# How the values were obtained:
# mouse = test: Single-dose oral toxicity in mouse; assay type: in vivo; settings: 1 g/kg weight
# Method: No toxicity is found even when the above-mentioned effective ingredient used in the present invention is administered in an effective dose for the exhibition of its action.
# [1] = system: mature adipocytes (3T3-L1 cells); test: Enhancing action on glucose uptake: 2-deoxyglucose uptake into mature adipocytes; assay type: cell-based
# Method: The induction of differentiation into mature adipocytes was carried out by partially modifying the method of Rubin C. S. et al. (JBC. 253 7570-7578, 1978). 3T3-L1 cells (ATCC CCL-92.1) were suspended in a 10% calf serum (manufactured by ICN)-containing Dulbecco's modified Eagle's medium (manufactured by Sigma, D6046) containing 200 μM ascorbic acid so as to have a density of 4×10^3 cells/mL, and the suspension was put in each well of a 12-well microtiter plate in an amount of 2 mL per well. The cells were cultured at 37° C. for 7 days in the presence of 5% carbon dioxide gas. On the seventh day, the medium was exchanged with […] of a 10% fetal bovine serum (manufactured by GIBCO)-containing Dulbecco's modified Eagle's medium containing 200 μM ascorbic acid, 0.25 μM dexamethasone, 10 μg/mL insulin (manufactured by TAKARA BIO INC.) and 0.5 mM 3-isobutyl-1-methylxanthine (manufactured by Nacalai Tesque, Inc., 19624-86). After 45 hours, the medium was exchanged with 2 mL of a 10% fetal bovine serum-containing Dulbecco's modified Eagle's medium containing 200 μM ascorbic acid and 5 μg/mL insulin. The medium was exchanged on after 2 days and 5 days, and the cells were cultured for 7 days, to give mature adipocytes.
# As the evaluation of enhancing action on glucose uptake, and also as the evaluation of insulin-mimetic action, the amount of 2-deoxyglucose uptake into mature adipocytes stimulated with the sample in the adipocytes was determined.
# After the termination of the culture, the medium was removed, and the cells were washed twice with a 0.1% (w/v) bovine serum albumin (manufactured by Sigma, A8022)-containing Dulbecco's modified Eagle's medium. Thereafter, 1 mL of the same medium was put to each well. The cells were cultured overnight at 37° C. in the presence of 5% carbon dioxide gas. After the overnight culture, the cells were washed twice with a HEPES buffered saline (140 mM NaCl, 5 mM KCl, 2.5 mM MgSO4, 1 mM CaCl2, 20 mM HEPES-Na (pH 7.4)), and 0.9 mL of the same buffer was added thereto. The cells were cultured at 37° C. for 75 minutes. […] […] Thereafter, 100 μL of a HEPES buffered saline containing 2-deoxy-[1,2-^3H(N)]-glucose (manufactured by PerkinElmer Life Sciences Inc., NET549A) and 1 mM 2-deoxyglucose (manufactured by Nacalai Tesque, Inc., 10722-11) was added thereto at a final concentration of 0.5 μCi/mL, and the cells were further cultured at 37° C. for 10 minutes. After the termination of the culture, the supernatant was removed, the cells were washed three times with a phosphate buffer cooled to 4° C., and 0.5 mL of a 1% Nonidet P-40-containing phosphate buffer was added to lyse the cells, whereby 2-deoxy-[1,2-^3H(N)]-glucose taken into the cells was eluted. The radioactivity was determined with a liquid scintillation counter LS6500 (manufactured by Beckmann) using 25 μL of the supernatant with Ultima Gold (manufactured by PerkinElmer Life Sciences Inc., 6013329) as a scintillation cocktail.
# 3T3-L1 cells = test: Inducing action on differentiation into adipocytes: amount of triglyceride in the adipocytes; assay type: cell-based
# Method: Induction of differentiation into adipocytes was carried out by partially modifying the above-mentioned method of Rubin C. S. et al. In addition, as a compound (P001), a compound prepared in Example 4 was used. 3T3-L1 cells were suspended in a 10% (w/v) calf serum-containing Dulbecco's modified Eagle's medium containing 200 μM ascorbic acid so as to have a density of 4×10^3 cells/mL, and the suspension was put in each well of a 12-well microtiter plate in an amount of 2 mL per well. The cells were cultured at 37° C. for 7 days in the presence of 5% carbon dioxide gas. On the seventh day, the medium was exchanged with a 10% fetal bovine serum-containing Dulbecco's modified Eagle's medium containing 200 μM ascorbic acid and 0.25 μM dexamethasone, and 4 μL of a 15 mM dimethyl sulfoxide solution of the compound (P001), a 5 mM dimethyl sulfoxide solution of the compound (P001), or a 1.5 mM dimethyl sulfoxide solution of the compound (P001) was added to each well. Here, there were set a group with addition of 4 μL of a 5 mg/mL aqueous solution of insulin as a positive control, and a group with addition of dimethyl sulfoxide as a negative control. After 48 hours, the medium was exchanged with a 10% fetal bovine serum-containing Dulbecco's modified Eagle's medium containing 200 μM ascorbic acid, and 4 μL of a 15 mM dimethyl sulfoxide solution of the compound (P001), a 5 mM dimethyl sulfoxide solution of the compound (P001), or a 1.5 mM dimethyl sulfoxide solution of the compound (P001), a group with addition of 2 μL of a 5 mg/mL aqueous solution of insulin as a positive control, or a group with addition of dimethyl sulfoxide as a negative control was put to each well. The cells were cultured for additional 7 days. Here, the medium was exchanged after 2 days and after 5 days, and at that time, 4 μL of a 15 mM dimethyl sulfoxide solution of the compound (P001), a 5 mM dimethyl sulfoxide solution of the compound (P001), or a 1.5 mM dimethyl sulfoxide solution of the compound (P001), a group with addition of 2 μL of a 5 mg/mL aqueous solution of insulin as a positive control, or a group with addition of dimethyl sulfoxide as a negative control was put to each well. […]
# The amount of triglyceride in the adipocytes was determined as an index for inducing differentiation into mature adipocytes, and also as the evaluation of insulin-mimetic action.
# After the termination of the culture, the medium was removed, and the cells were washed twice with a phosphate buffered saline. One milliliter of a solvent of hexane:isopropanol=3:2 was added to the cells. The mixture was allowed to stand at room temperature for 30 minutes, and thereafter the supernatant was collected. The procedures were repeated again, and 2 mL of the supernatant was concentrated to dryness. The precipitates were dissolved in 100 μL of isopropanol, and the amount of triglyceride contained in 10 μL of the solution was determined using a triglyceride E-test (manufactured by Wako Pure Chemical Industries, Ltd., code 432-40201). In addition, all the determinations were carried out twice.
# [2] = system: glucose transporter (mature adipocytes); test: Influence of cytochalasin B on 2-deoxyglucose uptake in mature adipocytes; assay type: cell-based; settings: cytochalasin B 40 μM, in every group (polygodial 3 μM, insulin 1 μg/mL, negative control)
# Method: Specifically, as a sample, there was set a group with addition of a dimethyl sulfoxide solution of polygodial so as to have a final concentration of 3 μM. […] Furthermore, in each group, there was set a group with addition of cytochalasin B (manufactured by Nacalai Tesque, Inc., 10435-81) so as to have a final concentration 40 μM at the same time as the time of addition of the sample and insulin. Thereafter, the amount of 2-deoxy-[1,2-^3H(N)]-glucose taken into the adipocytes was determined in the same manner.
# [3] = final concentration 10 μM, 3 μM or 1 μM, FIG. 2, FIG. 3
# [4] = final concentration 30 μM, 10 μM or 3 μM
smiles,measurement,setting,value
CC(=O)O[C@@H]1C[C@@H]2[C@@]3(C)CCCC(C)(C)[C@@H]3CC[C@@]2(C)[C@@H]2CC=C(C=O)[C@H](C=O)[C@@]12C [12-epi-scalaradial],deaths after oral administration,mouse,no cases of deaths are found
same,"2-deoxy-[1,2-3H(N)]-glucose uptake compared to the negative control",[1]; [3],"enhancement of 2-deoxy-[1,2-^3H(N)]-glucose uptake was found"
"COC(=O)C1=C(C(=O)OC)C2(C)CCCC(C)(C)C2=CC1 (stereo not shown) [P001, dimethyl 3,5,6,7,8,8a-hexahydro-5,5,8a-trimethyl-1,2-naphthalenedicarboxylate]",deaths after oral administration,mouse,no cases of deaths are found
same,biosynthesis of triglyceride (index of differentiation into mature adipocytes),3T3-L1 cells; [4],induction of biosynthesis of triglyceride was found
"CC1(C)CCCC2(C)C1=CCC(CO)=C2CO (stereo not shown) [P002, 3,5,6,7,8,8a-hexahydro-5,5,8a-trimethyl-1,2-naphthalenedimethanol]",deaths after oral administration,mouse,no cases of deaths are found
same,biosynthesis of triglyceride (index of differentiation into mature adipocytes),"3T3-L1 cells; final concentration 30 μM or 3 μM, FIG. 7",induction of biosynthesis of triglyceride was found
"CC1(C)CCCC2(C)C1=CCC1=C2C(=O)OC1 (stereo not shown) [P003, 4,6,7,8,9,9a-hexahydro-6,6,9a-trimethyl-naphtho[1,2-c]furan-1(3H)-one]",deaths after oral administration,mouse,no cases of deaths are found
same,biosynthesis of triglyceride (index of differentiation into mature adipocytes),3T3-L1 cells; [4],induction of biosynthesis of triglyceride was found
same,"2-deoxy-[1,2-3H(N)]-glucose uptake compared to the negative control","[1]; final concentration 30 μM or 10 μM, sample added at each exchange of BSA medium or HEPES buffered saline, FIG. 23","enhancement of 2-deoxy-[1,2-^3H(N)]-glucose uptake was found"
"COC(=O)C1=CCC2C(C)(C)CCCC2(C)C1C(=O)OC (stereo not shown) [P004, dimethyl 1,4,4a,5,6,7,8,8a-octahydro-5,5,8a-trimethyl-1,2-naphthalenedicarboxylate]",deaths after oral administration,mouse,no cases of deaths are found
same,biosynthesis of triglyceride (index of differentiation into mature adipocytes),"3T3-L1 cells; final concentration 10 μM, 3 μM or 1 μM, FIG. 12",induction of biosynthesis of triglyceride was found
same,"2-deoxy-[1,2-3H(N)]-glucose uptake compared to the negative control","[1]; final concentration 30 μM, 10 μM or 3 μM, FIG. 11","enhancement of 2-deoxy-[1,2-H(N)]-glucose uptake was found"
"CC1(C)CCCC2(C)C(CO)C(CO)=CCC12 (stereo not shown) [P005, 1,4,4a,5,6,7,8,8a-octahydro-5,5,8a-trimethyl-1,2-naphthalenedimethanol]",deaths after oral administration,mouse,no cases of deaths are found
same,biosynthesis of triglyceride (index of differentiation into mature adipocytes),"3T3-L1 cells; final concentration 30 μM or 10 μM, FIG. 14",induction of biosynthesis of triglyceride was found
"CC1(C)CCCC2(C)C3COC(=O)C3=CCC12 (stereo not shown) [P006, 5,5a,6,7,8,9,9a,9b-octahydro-6,6,9a-trimethyl-naphtho[1,2-c]furan-3(1H)-one]",deaths after oral administration,mouse,no cases of deaths are found
same,biosynthesis of triglyceride (index of differentiation into mature adipocytes),3T3-L1 cells; [4],induction of biosynthesis of triglyceride was found
"CC(=O)OCC1=CCC2C(C)(C)CCCC2(C)C1C=O (stereo not shown) [P007, 1-[(acetyloxy)methyl]-1,4,4a,5,6,7,8,8a-octahydro-5,5,8a-trimethyl-2-naphthalenecarboxyaldehyde]",deaths after oral administration,mouse,no cases of deaths are found
same,biosynthesis of triglyceride (index of differentiation into mature adipocytes),3T3-L1 cells; [4],induction of biosynthesis of triglyceride was found
"CC(=O)OCC1=CCC2C(C)(C)CCCC2(C)C1C=O (stereo not shown) [P008, 2-[(acetyloxy)methyl]-1,4,4a,5,6,7,8,8a-octahydro-5,5,8a-trimethyl-1-naphthalenecarboxyaldehyde]",deaths after oral administration,mouse,no cases of deaths are found
same,biosynthesis of triglyceride (index of differentiation into mature adipocytes),"3T3-L1 cells; final concentration 10 μM or 3 μM, FIG. 20",induction of biosynthesis of triglyceride was found
"C=C1[C@@H](C)[C@H]2[C@H](Cc3ccccc3)NC(=O)[C@]23OC(=O)/C=C/[C@H](O)CCC[C@@H](C)C/C=C/[C@H]3[C@@H]1O [cytochalasin B, reference compound]","2-deoxy-[1,2-3H(N)]-glucose uptake on addition of cytochalasin B",[2],almost completely inhibited
CC1(C)CCC[C@]2(C)[C@H](C=O)C(C=O)=CC[C@@H]12 [epipolygodial],deaths after oral administration,mouse,no cases of deaths are found
same,"2-deoxy-[1,2-3H(N)]-glucose uptake compared to the negative control","[1]; final concentration 3 μM, 1 μM or 0.3 μM, FIG. 25","enhancement of 2-deoxy-[1,2-^3H(N)]-glucose uptake was found"
CC1(C)C[C@H]2C=C(C=O)[C@]3(C=O)C[C@]3(C)[C@H]2C1 [isovelleral],deaths after oral administration,mouse,no cases of deaths are found
same,"2-deoxy-[1,2-3H(N)]-glucose uptake compared to the negative control","[1]; final concentration 3 μM or 1 μM, FIG. 24","enhancement of 2-deoxy-[1,2-^3H(N)]-glucose uptake was found"
CC1(C)CCCC2(C)C1CCC1(CO1)C2C/C=C(/C=O)CC=O (stereo not shown) [miogadial],deaths after oral administration,mouse,no cases of deaths are found
"O=Cc1cc2ccccc2cc1C=O [naphthalene-2,3-dicarboxyaldehyde]",deaths after oral administration,mouse,no cases of deaths are found
same,"2-deoxy-[1,2-3H(N)]-glucose uptake compared to the negative control",[1]; [3],"enhancement of 2-deoxy-[1,2-^3H(N)]-glucose uptake was found"
